pIC50: −log10 of the molar value. Like-named read-outs stand apart in the source and are kept apart here.
Columns and labels:
Type in all cases: cell-based
[1] = molecular target: T1, norepinephrine transporter (Homo sapiens, UniProt P23975); experiment: Norepinephrine reuptake inhibition in transporter-transfected HEK-293 cells ([3H]-NE); details: for Triple reuptake inhibition (Ratio %) NET: compound 1 μM, [3H]-NE, relative to control without compound (100%), lower = more inhibition; for IC50: concentration at which Ratio % is 50%, 6 concentrations 1 nM to 1 μM, read-out: Triple reuptake inhibition (IC50, μM) NET
T1 construct: expressed in transfected cells; host or cells: HEK-293
T1 sequence (P23975 whole entry, species assumed): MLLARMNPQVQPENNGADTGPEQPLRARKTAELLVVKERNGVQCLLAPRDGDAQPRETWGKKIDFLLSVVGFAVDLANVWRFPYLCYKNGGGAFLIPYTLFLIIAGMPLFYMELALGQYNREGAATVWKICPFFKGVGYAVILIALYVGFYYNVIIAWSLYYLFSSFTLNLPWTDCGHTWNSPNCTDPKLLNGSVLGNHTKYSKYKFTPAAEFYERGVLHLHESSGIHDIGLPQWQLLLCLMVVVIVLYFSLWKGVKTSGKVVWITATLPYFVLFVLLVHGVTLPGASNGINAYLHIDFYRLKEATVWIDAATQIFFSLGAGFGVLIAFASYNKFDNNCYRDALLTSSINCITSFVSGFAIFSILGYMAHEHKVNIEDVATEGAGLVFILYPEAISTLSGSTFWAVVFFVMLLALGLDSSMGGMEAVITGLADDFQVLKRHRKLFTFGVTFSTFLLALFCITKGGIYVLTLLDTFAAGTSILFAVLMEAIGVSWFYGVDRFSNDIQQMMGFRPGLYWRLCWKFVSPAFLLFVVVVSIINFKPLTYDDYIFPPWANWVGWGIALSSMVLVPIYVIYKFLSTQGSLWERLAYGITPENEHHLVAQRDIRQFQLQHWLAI
Protocol: (§1) To evaluate the reuptake inhibitory effect on dopamine, the dopamine transporter cDNA was transfected using the HEK-293 cell line, and then sub-seeded in a 24 well plate the next day. After removing the medium, each compound of the Examples or Comparative Examples diluted to 1 μM in uptake buffer was added to a concentration of 200 μl/well and cultured at 37° C. for 15 minutes. 100 μl of uptake buffer containing 20-30 nM [3H]-DA was added and cultured at 37° C. for 5 minutes. The reaction solution was quickly removed and washed three times with 1 ml ice-cold uptake buffer. After dissolving the resultant in 1% SDS (0.5 ml), the degree of binding of radioisotope-labeled dopamine to the transporter was measured.
(§2) For norepinephrine (NE) and serotonin (5-HT), the degree of binding of radioisotope-labeled norepinephrine or serotonin to the transporter was measured in the same manner as above, except that cells transfected with NE or 5-HT transporter cDNA were used and [3H]-NE or [3H]-5-HT was used as a substrate.
(§3) In addition, when evaluating the reuptake inhibitory effect on dopamine, norepinephrine, and serotonin, the same method was performed without treating each compound of the Examples or Comparative Examples as a control, the degree of binding of radioisotope-labeled dopamine, norepinephrine, and serotonin to the transporter was measured, and by using this as a standard (100%), the triple reuptake inhibitory effect was evaluated as a relative ratio (Ratio %). That is, in the control group, the binding of dopamine, norepinephrine, and serotonin to transporters is not inhibited, but when each compound of the Examples is treated and thus the binding is inhibited, the Patio % value decreases.
(§4) Meanwhile, the Patio % values were compared, and in the case of the compounds of Examples 6, 9, 10, 19, 20, 22, 24, 28, 30, 31, 32, 33, 35, 41, 42, 48, 49, 51, 55, 56, 59, 61, 63, 64, 65, 66, 74 and 76 with excellent reuptake inhibitory effects on dopamine, norepinephrine and serotonin, the concentration at which the Ratio % is 50% was calculated using a total of 6 concentrations (1 nM, 5 nM, 10 nM, 50 nM, 100 nM, and 1 μM) and expressed as IC50. In addition, in the case of the compound of Comparative Example 1, IC50 was obtained by the same method as the Example Compounds.

[2] = molecular target: T2, serotonin transporter (Homo sapiens, UniProt P31645); experiment: Serotonin reuptake inhibition in transporter-transfected HEK-293 cells ([3H]-5-HT); details: for Triple reuptake inhibition (Ratio %) SERT: compound 1 μM, [3H]-5-HT, relative to control without compound (100%), lower = more inhibition; for IC50: concentration at which Ratio % is 50%, 6 concentrations 1 nM to 1 μM, read-out: Triple reuptake inhibition (IC50, μM) SERT
T2 construct: expressed in transfected cells; host or cells: HEK-293
T2 sequence (P31645 whole entry): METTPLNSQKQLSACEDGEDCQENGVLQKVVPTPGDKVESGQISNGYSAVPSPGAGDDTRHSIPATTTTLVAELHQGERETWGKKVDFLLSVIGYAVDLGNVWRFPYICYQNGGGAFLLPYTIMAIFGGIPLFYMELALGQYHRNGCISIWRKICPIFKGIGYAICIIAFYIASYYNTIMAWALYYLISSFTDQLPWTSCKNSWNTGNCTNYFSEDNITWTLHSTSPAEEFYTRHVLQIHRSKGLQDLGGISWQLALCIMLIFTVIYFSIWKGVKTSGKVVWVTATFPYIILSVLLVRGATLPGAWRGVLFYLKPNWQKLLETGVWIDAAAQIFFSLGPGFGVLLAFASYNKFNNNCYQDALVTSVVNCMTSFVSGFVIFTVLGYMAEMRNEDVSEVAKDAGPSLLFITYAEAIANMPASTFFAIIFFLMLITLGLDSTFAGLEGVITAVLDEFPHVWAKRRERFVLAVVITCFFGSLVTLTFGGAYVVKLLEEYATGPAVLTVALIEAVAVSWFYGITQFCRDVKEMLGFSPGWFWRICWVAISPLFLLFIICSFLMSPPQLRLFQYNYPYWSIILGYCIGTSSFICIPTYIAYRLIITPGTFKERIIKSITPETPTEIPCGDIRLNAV
Protocol: as §1, §2, §3
In addition, in the case of the compound of Comparative Example 1, IC50 was obtained by the same method as the Example Compounds.

[3] = molecular target: T3, dopamine transporter (Homo sapiens, UniProt Q01959); experiment: Dopamine reuptake inhibition in transporter-transfected HEK-293 cells ([3H]-DA); details: for Triple reuptake inhibition (Ratio %) DAT: compound 1 μM, 20-30 nM [3H]-DA, relative to control without compound (100%), lower = more inhibition; for IC50: concentration at which Ratio % is 50%, 6 concentrations 1 nM to 1 μM, read-out: Triple reuptake inhibition (IC50, μM) DAT
T3 construct: expressed in transfected cells; host or cells: HEK-293
T3 sequence (Q01959 whole entry): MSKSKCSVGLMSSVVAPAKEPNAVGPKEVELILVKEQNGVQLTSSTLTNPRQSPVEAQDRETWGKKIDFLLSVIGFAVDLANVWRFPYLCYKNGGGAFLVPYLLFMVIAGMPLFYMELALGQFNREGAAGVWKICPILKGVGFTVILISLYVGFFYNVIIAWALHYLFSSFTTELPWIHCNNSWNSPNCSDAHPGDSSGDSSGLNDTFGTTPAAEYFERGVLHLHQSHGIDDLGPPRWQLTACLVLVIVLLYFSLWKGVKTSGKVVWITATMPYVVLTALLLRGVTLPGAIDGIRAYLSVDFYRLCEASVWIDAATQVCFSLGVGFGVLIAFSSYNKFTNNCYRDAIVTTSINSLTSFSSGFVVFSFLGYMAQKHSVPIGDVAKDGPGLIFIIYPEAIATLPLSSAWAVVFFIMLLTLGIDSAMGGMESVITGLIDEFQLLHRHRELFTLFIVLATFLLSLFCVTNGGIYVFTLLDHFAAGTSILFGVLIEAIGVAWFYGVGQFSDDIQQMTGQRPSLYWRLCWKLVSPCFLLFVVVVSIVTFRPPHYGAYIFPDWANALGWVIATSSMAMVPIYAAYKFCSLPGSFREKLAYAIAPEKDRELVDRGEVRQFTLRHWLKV
Protocol: as §1, §3, §4

Row | SMILES | Triple reuptake inhibition (Ratio %) NET [1] | Triple reuptake inhibition (Ratio %) SERT [2] | Triple reuptake inhibition (Ratio %) DAT [3] | IC50 [1] | IC50 [2] | IC50 [3] | pIC50 [1] | pIC50 [2] | pIC50 [3]
1 | O=C(c1cc2ccccc2[nH]1)N1CCC(Cc2ccccc2)CC1 [Example 26, (4-benzylpiperidin-1-yl) (1H-indol-2-yl)methanone] | 92.07% | 113.81% | 124.32% |  |  |  |  |  | 
2 | O=C(NCCN1CCN(c2cccc(Cl)c2Cl)CC1)c1ccc2cc(Br)ccc2c1 [Example 4, 6-bromo-N-(2-(4-(2,3-dichlorophenyl)piperazin-1-yl)ethyl)-2-naphthamide] | 121.24% | 73.53% | 108.51% |  |  |  |  |  | 
3 | O=C(NCCN1CCC(Cc2ccccc2)CC1)c1ccc(Cl)c(Cl)c1 [Example 18, N-(2-(4-benzylpiperidin-1-yl)ethyl)-3,4-dichlorobenzamide] | 67.88% | 47.45% | 68.93% |  |  |  |  |  | 
4 | O=C(NCCN1CCN(Cc2ccccc2)CC1)c1ccc2cc(Br)ccc2c1 [Example 5, N-(2-(4-benzylpiperazin-1-yl)ethyl)-6-bromo-2-naphthamide] | 94.24% | 76.90% | 96.26% |  |  |  |  |  | 
5 | COc1ccc2[nH]c(C(=O)NCCN3CCC(Cc4ccccc4)CC3)nc2c1 [Example 59, N-(2-(4-benzylpiperidin-1-yl)ethyl)-5-methoxy-1H-benzo[d]imidazol-2-carboxamide] | 43.43% | 45.80% | 17.60% | 0.257 µM | 0.198 µM | 0.198 µM |  |  | 
6 | O=C(NCCN1CCN(CC2CCOCC2)CC1)c1cc2ccccc2[nH]1 [Example 29, N-(2-(4-((tetrahydro-2H-pyran-4-yl)methyl)piperazin-1-yl)ethyl)-1H-indol-2-carboxamide] | 97.94% | 94.24% | 113.83% |  |  |  |  |  | 
7 | O=C(NCCNC(=O)c1cc2ccccc2[nH]1)c1ccc2ccccc2c1 [Example 45, N-(2-(2-naphthamido)ethyl)-1H-indol-2-carboxamide] | 102.98% | 91.05% | 110.91% |  |  |  |  |  | 
8 | O=C(NCCN1CCC(Cc2ccccc2)CC1)c1c[nH]c2ccccc12 [Example 73, N-(2-(4-benzylpiperidin-1-yl)ethyl)-1H-indol-3-carboxamide] | 57.01% | 88.39% | 33.58% |  |  |  |  |  | 
9 | NC(=O)c1ccc2[nH]c(C(=O)NCCN3CCC(Cc4ccccc4)CC3)cc2c1 [Example 82, N2-(2-(4-benzylpiperidin-1-yl)ethyl)-1H-indol-2,5-dicarboxamide] | 37.73% | 41.20% | 47.70% |  |  |  |  |  | 
10 | O=C(NCCN1CCC(Cc2ccc(Cl)c(Cl)c2)CC1)c1cc(Cl)cc(Cl)c1 [Example 10, 3,5-dichloro-N-(2-(4-(3,4-dichlorobenzyl)piperidin-1-yl)ethyl)benzamide] | 76.85% | 37.57% | 44.72% | 14.3 µM |  | 4.29 µM |  |  | 
11 | O=C(NCCN1CCN(c2ccc(Cl)c(Cl)c2)CC1)c1ccc(Cl)c(Cl)c1 [Example 14, 3,4-dichloro-N-(2-(4-(3,4-dichlorphenyl)piperazin-1-yl)ethyl)benzamide] | 105.49% | 88.61% | 94.20% |  |  |  |  |  | 
12 | O=C(NCCN1CCN(c2cccc(C(F)(F)F)c2)CC1)c1ccc2cc(Br)ccc2c1 [Example 2] | 120.40% | 78.42% | 107.77% |  |  |  |  |  | 
13 | O=C(NCCN1CCN(c2ccc(Cl)c(Cl)c2)CC1)c1cc2ccccc2[nH]1 [Example 24, N-(2-(4-(3,4-dichlorophenyl)piperazin-1-yl)ethyl)-1H-indol-2-carboxamide] | 107.75% | 59.92% | 43.28% |  | > 10 µM | 8.03 µM |  |  | 
14 | O=C(CCC(=O)N1CCC(Cc2ccccc2)CC1)Nc1cc2ccccc2[nH]1 [Example 77, 4-(4-benzylpiperidin-1-yl)-N-(1H-indol-2-yl)-4-oxobutanamide] | 91.05% | 98.61% | 111.32% |  |  |  |  |  | 
15 | O=C(NCCN1CCC(Cc2ccccc2)CC1)c1cc2cc(OCc3ccccc3)ccc2[nH]1 [Example 46, 5-(benzyloxy)-N-(2-(4-benzylpiperidin-1-yl)ethyl)-1H-indol-2-carboxamide] | 110.55% | 42.91% | 77.49% |  |  |  |  |  | 
16 | O=C(CCN1CCC(Cc2ccccc2)CC1)Nc1cc2ccccc2[nH]1 [Example 76, 3-(4-benzylpiperidin-1-yl)-N-(1H-indol-2-yl)propanamide] | 32.60% | 68.60% | 36.87% |  |  |  | 6.30 | 6.09 | 6.56
17 | O=C(NCCN1CCC(Cc2ccc(Cl)c(Cl)c2)CC1)c1cc2ccccc2[nH]1 [Example 19, N-(2-(4-(3,4-dichlorobenzyl)piperidin-1-yl)ethyl)-1H-indol-2-carboxamide] | 94.93% | 40.39% | 36.79% | > 10 µM | 0.51 µM | 0.59 µM |  |  | 
18 | O=C(NCCN1CCN(c2cccc(Cl)c2Cl)CC1)c1ccc(Cl)c(Cl)c1 [Example 13, 3,4-dichloro-N-(2-(4-(2,3-dichlorophenyl)piperazin-1-yl)ethyl)benzamide] | 94.42% | 89.10% | 106.09% |  |  |  |  |  | 
19 | N#Cc1ccc2[nH]c(C(=O)NCCN3CCC(Cc4ccccc4)CC3)cc2c1 [Example 41, N-(2-(4-benzylpiperidin-1-yl)ethyl)-5-cyano-1H-indol-2-carboxamide] | 31.85% | 48.50% | 12.3% | 0.371 µM | 0.525 µM | 0.171 µM |  |  | 
20 | CCCCOc1ccc2[nH]c(C(=O)NCCN3CCC(Cc4ccccc4)CC3)cc2c1 [Example 67, N-(2-(4-benzylpiperidin-1-yl)ethyl)-5-butoxy-1H-indol-2-carboxamide] | 92.60% | 53.46% | 56.05% |  |  |  |  |  | 
21 | O=C(NCC(=O)N1CCC(Cc2ccccc2)CC1)c1cc2ccccc2[nH]1 [Example 50, N-(2-(4-benzylpiperidin-1-yl)-2-oxoethyl)-1H-indol-2-carboxamide] | 93.21% | 100.83% | 108.32% |  |  |  |  |  | 
22 | O=C(NCCN1CCC(Cc2ccc(Cl)c(Cl)c2)CC1)c1ccc(Cl)c(Cl)c1 [Example 17, 3,4-dichloro-N-(2-(4-(3,4-dichlorobenzyl)piperidin-1-yl)ethyl)benzamide] | 88.67% | 4.81% | 66.05% |  |  |  |  |  | 
23 | Cn1c(C(=O)NCCN2CCC(Cc3ccccc3)CC2)cc2ccccc21 [Example 74, N-(2-(4-benzylpiperidin-1-yl)ethyl)-1-methyl-1H-indol-2-carboxamide] | 28.47% | 67.26% | 39.87% | 0.337 µM | 3.41 µM | 0.509 µM |  |  | 
